In patent US5466811A, “Dioxolenylmethyl carbamates pro moieties for amine drugs” (Merck & Co., Inc., priority 1994, dated 1995):

Assays:
in vitro = in vitro ADME; conditions: rat, plasma
Description: The process of hydrolysis of the dioxolenylmethyl carbamate of 3,4-dimethoxyphenethylamine was studied by measuring the formation of dimethoxyphenethylamine at 37° C. in neat rat plasma. The reaction was initiated by adding a dimethyl sulfoxide (DMSO) solution of the carbamate to the reaction medium pre-equilibrated at 37° C. in a thermostated water bath. The initial concentrations of the carbamate in rat plasma was 4.3×10^-3 M and the concentration of DMSO was 10%. Samples (100 μL of acetonitrile, vortex mixed for 30 seconds to precipitate the plasma proteins, and centrifuged at 10,000 X g for 5 minutes. The supematants were injected directly and analyxed by HPLC. The HPLC column used was a 10 cm spheri-5 RP-18 column combined with a similar 3 cm guard column. The mobile phase used for the analysis of dimethoxyphenethylamine was 30% v/v of acetonitrile in water containing 0.5 mL/L of 85% phosphoric acid and 0.5 mL/L of triethylamine at a flow rate of 2 mL per minute. The concentration was measured at 280 nm using a variable wave length UV detector. The retention time of dimethoxyphenethylamine under these conditions was 5.8 minutes.

rats = conditions: oral administration, Sakamoto, et al, Chem. Pharm. Bull., 1985, 33, 4870; cited from earlier work

Which half-life at 4300 µM (in vitro) does the source give for `COc1ccc(CCNC(=O)OCc2oc(=O)oc2C)cc1OC` [5'-methyl-2'-oxo-1',3'-dioxol-4'-enyl-4'-methylcarbamoyl-3,4-dimethoxyphenethylamine] here?
The half-life at 4300 µM was 11 min.

For `CCn1cc(C(=O)O)c(=O)c2cc(F)c(N3CCN(Cc4oc(=O)oc4C)CC3)cc21` [alkylated nofloxacin], which “regeneration of the parent drug” value (rats) is on record?
The value was “regenerated the parent drug”.
